Here are results for eight compounds from ChEMBL document CHEMBL1151518, “Synthesis, evaluation and Tc-99m complexation of a hydrazinonicotinyl conjugate of a GP IIb/IIIa antagonist cyclic peptide for the detection of deep vein thrombosis” (Bioorg Med Chem Lett, 1997).

pIC50: −log10 of the molar value. Bounds are passed on as bounds.

The target of this experiment is Integrin alpha-IIb/beta-3 (Canis lupus familiaris). Description: Inhibition of 125I-fibrinogen binding to alpha IIb beta-3 integrin as inhibition of activated platelets.

The compound `CN1C(=O)[C@@H](CCCCNC(=O)c2ccc(NNC(=O)OC(C)(C)C)nc2)NC(=O)c2cccc(c2)CNC(=O)[C@H](CC(=O)O)NC(=O)CNC(=O)[C@@H]1CCCN=C(N)N` showed a negative logarithm of the IC50 (pIC50) of 7.80.

The compound `CC(C)[C@H]1NC(=O)c2cc(cc(NC(=O)CCCCCNC(=O)c3ccc(NN)nc3)c2)CNC(=O)[C@H](CC(=O)O)NC(=O)CNC(=O)[C@H](CCCN=C(N)N)N(C)C1=O` showed a pIC50 of 8.10.

With `CC(C)[C@H]1NC(=O)c2cccc(c2)CNC(=O)[C@H](CC(=O)O)NC(=O)CNC(=O)[C@H](CCCN=C(N)N)N(C)C1=O`, the negative-log IC50 (pIC50) was 8.22.

In turn, `CCOC(C)SCC(=O)NCC(CCC(=O)NCCCCCC(=O)Nc1cc2cc(c1)C(=O)N[C@H](C(C)C)C(=O)N(C)[C@@H](CCCN=C(N)N)C(=O)NCC(=O)N[C@@H](CC(=O)O)C(=O)NC2)NC(=O)CSC(C)OCC` (stereo partly drawn) gave a negative logarithm of the IC50 (pIC50) of 7.89.

In turn, `CC(C)[C@H]1NC(=O)c2cc(cc(NC(=O)CCCCCNC(=O)c3ccc(NNC(=O)OC(C)(C)C)nc3)c2)CNC(=O)[C@H](CC(=O)O)NC(=O)CNC(=O)[C@H](CCCN=C(N)N)N(C)C1=O` showed a pIC50 of 8.05.

For `CCOC(C)SCC(=O)NCC(CCC(=O)NCCCC[C@H]1NC(=O)c2cccc(c2)CNC(=O)[C@H](CC(=O)O)NC(=O)CNC(=O)[C@H](CCCN=C(N)N)N(C)C1=O)NC(=O)CSC(C)OCC` (stereo partly drawn), the negative-log IC50 (pIC50) was 7.96.

Take `CC(C)[C@H]1NC(=O)c2cc(cc(NC(=O)CCCCCNC(=O)c3ccc(CN(CCSC(c4ccccc4)(c4ccccc4)c4ccccc4)CC(=O)NCCSC(c4ccccc4)(c4ccccc4)c4ccccc4)cc3)c2)CNC(=O)[C@H](CC(=O)O)NC(=O)CNC(=O)[C@H](CCCN=C(N)N)N(C)C1=O`: the pIC50 is below 6.00.

`CC(C)[C@H]1NC(=O)c2cc(cc(NC(=O)CCCCCN)c2)CNC(=O)[C@H](CC(=O)O)NC(=O)CNC(=O)[C@H](CCCN=C(N)N)N(C)C1=O` had a pIC50 of 8.30.

By pIC50 is commonly meant −log10 of the IC50, conventionally taken in molar units. Higher therefore signals a low IC50.
